Data reported in US4503044A, “Antibiotic LL-D05139 β” (American Cyanamid Company, priority 1983, dated 1985).
≈ marks a conversion by molar mass, not a printed value. Read-outs that look alike come from different tables or passages of the source.

Experiments:
[1] = test system: human lung carcinoma (LX-1); assay: Human tumor clonogenic assay, lung carcinoma; assay type: cell-based; settings: for T/C / Av. No. of Colonies/Culture: Lung Carcinoma; for T/C: active if T/C ≤30%; for Av. No. of Colonies/Culture: colonies counted after 10-11 days, control 590
Protocol: (§1) This test was performed essentially by the method of A. Hamburger and S. Salmon, Primary bioassay of humor tumor stem cells., Science, 197: 461-463 (1977). Human colon carcinoma (CX-1) and human lung carcinoma (LX-1) tumors were obtained from the National Cancer Institute and propagated in athymic Balb/c mice. Freshly removed tumors were dispersed with trypsin 0.25% and 5×10^4 lung carcinoma cells or 1×10^5 colon carcinoma cells in soft (0.3%) agarose medium containing 0.1 ml of test drug were plated onto a solidified (0.5%) agarose base medium in 35 mm grided dishes. Cultures were incubated at 37° C. in a humidified 5% carbon dioxide in air atmosphere. Colonies were counted after 10-11 days. A compound is considered active if the treated/control (T/C) value is ≤30%, representing a 70% cell kill.

[2] = test system: lymphocytic leukemia P388; assay: Lymphocytic Leukemia P388 Test; assay type: in vivo; settings: DBA/2 mice, efficacy criterion ≥125%
Protocol: The animals used were DBA/2 mice, all of one sex, weighing a minimum of 17 g and all within a 3 g weight range. There were three animals per test group. The tumor transplant was by intraperitoneal injection of 0.1 ml of dilute ascitic fluid containing 10^6 cells of lymphocytic leukemia P388. LL-D05139β was administered intraperitoneally on days 1, 5 and 9 (relative to tumor inoculation) at various doses. The animals were weighed and survivors recorded on a regular basis for 30 days. The ratio of survival time for treated (T)/control (C) animals was calculated. The positive control compound was 5-fluorouracil, given as a 60 mg/kg injection. The criterion for efficacy is T/C×100≥125%.

[3] = test system: human colon carcinoma (CX-1); assay: Human tumor clonogenic assay, colon carcinoma; assay type: cell-based
Protocol: as §1

[4] = Stability in solution as a function of pH; assay type: physicochemical
Pseudomonas aeruginosa = assay: In vitro antibacterial activity, agar dilution; assay type: cell-based; settings: 35° C., read-out: Minimal Inhibitory Concentration
Protocol: (§2) This antibacterial agent is active in vitro against gram-positive and gram-negative bacteria when tested by the standard agar dilution procedure with Mueller-Hinton agar, and an inoculum of each test organism of approximately 10^4 colony-forming units delivered by a Steers replicating device. The minimal inhibitory concentration (mcg/ml) was defined as the lowest concentration of antibiotic LL-D05139β that inhibited visible growth after 18 hours incubation at 35° C.

[5] = test system: Acinetobacter calcoaceticus; assay: In vitro antibacterial activity, agar dilution; assay type: cell-based; settings: 18 h, 35° C., read-out: Minimal Inhibitory Concentration
Protocol: as §2

Candida albicans = assay: In vitro antibacterial activity, agar dilution; assay type: cell-based; settings: 18 h, 35° C., read-out: Minimal Inhibitory Concentration
Protocol: as §2

Serratia sp. = assay: In vitro antibacterial activity, agar dilution; assay type: cell-based; settings: Serratia sp. TU1-78-15; Mueller-Hinton agar, 18 hours, 35° C.; read-out: Minimal Inhibitory Concentration
Protocol: as §2

Staphylococcus aureus = assay: In vitro antibacterial activity, agar dilution; assay type: cell-based; settings: Mueller-Hinton agar, 18 hours, 35° C.; for MIC: read-out: Minimal Inhibitory Concentration
Protocol: as §2

Klebsiella pneumoniae = assay: In vitro antibacterial activity, agar dilution; assay type: cell-based; settings: 18 h, 35° C., read-out: Minimal Inhibitory Concentration
Protocol: as §2

Serratia marcescens = assay: In vitro antibacterial activity, agar dilution; assay type: cell-based; settings: Serratia marcescens QHC-77-2; Mueller-Hinton agar, 18 hours, 35° C.; read-out: Minimal Inhibitory Concentration
Protocol: as §2

Proteus rettgeri = assay: In vitro antibacterial activity, agar dilution; assay type: cell-based; settings: Providencia rettgeri; Proteus rettgeri N-76-1; Mueller-Hinton agar, 18 hours, 35° C.; read-out: Minimal Inhibitory Concentration
Protocol: as §2

Enterobacter cloacae = assay: In vitro antibacterial activity, agar dilution; assay type: cell-based; settings: Enterobacter cloacae K-79-16; Mueller-Hinton agar, 18 hours, 35° C.; read-out: Minimal Inhibitory Concentration
Protocol: as §2

Escherichia coli = assay: In vitro antibacterial activity, agar dilution; assay type: cell-based; settings: 35° C., read-out: Minimal Inhibitory Concentration
Protocol: as §2

Proteus morganii = assay: In vitro antibacterial activity, agar dilution; assay type: cell-based; settings: Morganella morganii; Proteus morganii K-79-25; Mueller-Hinton agar, 18 hours, 35° C.; read-out: Minimal Inhibitory Concentration
Protocol: as §2

Micrococcus luteus = assay: In vitro antibacterial activity, agar dilution; assay type: cell-based; settings: Micrococcus luteus PCI-1001; Mueller-Hinton agar, 18 hours, 35° C.; read-out: Minimal Inhibitory Concentration
Protocol: as §2

Enterococcus sp. = assay: In vitro antibacterial activity, agar dilution; assay type: cell-based; settings: Mueller-Hinton agar, 18 hours, 35° C.
Protocol: as §2

Salmonella sp. = assay: In vitro antibacterial activity, agar dilution; assay type: cell-based; settings: Salmonella sp. QHC-77-3; Mueller-Hinton agar, 18 hours, 35° C.; read-out: Minimal Inhibitory Concentration
Protocol: as §2

Providencia stuarti = assay: In vitro antibacterial activity, agar dilution; assay type: cell-based; settings: Mueller-Hinton agar, 18 hours, 35° C.
Protocol: as §2

Enterobacter aerogenes = assay: In vitro antibacterial activity, agar dilution; assay type: cell-based; settings: Klebsiella aerogenes; Enterobacter aerogenes Stfd-79-14; Mueller-Hinton agar, 18 hours, 35° C.; read-out: Minimal Inhibitory Concentration
Protocol: as §2

Pasteurella multocida = assay: In vitro antibacterial activity, agar dilution; assay type: cell-based; settings: Pasteurella multocida LL #117; Mueller-Hinton agar, 18 hours, 35° C.; read-out: Minimal Inhibitory Concentration
Protocol: as §2

Bacillus subtilis = assay: In vitro antibacterial activity, agar dilution; assay type: cell-based; settings: ATCC6633; Bacillus subtilis ATCC 6633; Mueller-Hinton agar, 18 hours, 35° C.; read-out: Minimal Inhibitory Concentration
Protocol: as §2

C[C@H](N)C(=O)N[C@@H](COC(=O)C=[N+]=[N-])C(=O)O [LL-D05139β, N-L-alanyl-L-serine diazoacetate]
T/C ([1]; concentration 2 mgc/ml): 23.2% | Av. No. of Colonies/Culture ([1]; concentration 2 mgc/ml): 137 | T/C ([1]; concentration 20 mgc/ml): 17.8% | Av. No. of Colonies/Culture ([1]; concentration 20 mgc/ml): 105 | T/C ([1]; concentration 200 mgc/ml): 13.0% | Av. No. of Colonies/Culture ([1]; concentration 200 mgc/ml): 78 | activity in human tumor clonogenic (stem cell) assay ([1]; human lung (LX-1) carcinoma, at 2.0 mcg/ml and higher doses): active | T/C × 100 (survival time treated/control) ([2]; 25 mg/kg intraperitoneally on days 1, 5 and 9): 140% | T/C × 100 (survival time treated/control) ([2]; 50 mg/kg intraperitoneally on days 1, 5 and 9): 150% | T/C × 100 (survival time treated/control) ([2]; 200 mg/kg intraperitoneally on days 1, 5 and 9): 140% | T/C ([3]; Colon Carcinoma, concentration 2 mgc/ml, active if T/C ≤30%): 16.0% | Av. No. of Colonies/Culture ([3]; Colon Carcinoma, concentration 2 mgc/ml, colonies counted after 10-11 days, control 420): 67 | activity in human tumor clonogenic (stem cell) assay ([3]; colon (CX-1) carcinoma, at 2.0 mcg/ml and higher doses): active | stability in acid ([4]; acid, solutions kept between pH 7 and pH 9.5 during isolation): poor stability | stability ([4]; below pH 5.0): Decomposes rapidly | stability ([4]; weakly basic solutions): stable | MIC (Pseudomonas aeruginosa; 18 h, Pseudomonas aeruginosa 12-4-4, Mueller-Hinton agar): 128 µg/mL (≈ 524 µM) | MIC (Pseudomonas aeruginosa; 18 h, Pseudomonas aeruginosa SSC-78-13, Mueller-Hinton agar): 512 µg/mL (≈ 2100 µM) | MIC (Pseudomonas aeruginosa; ATCC27853, 18 h, Pseudomonas aeruginosa ATCC 27853, Mueller-Hinton agar): 128 µg/mL (≈ 524 µM) | MIC ([5]; Acinetobacter calcoaceticus K-77-1, Mueller-Hinton agar): 128 µg/mL (≈ 524 µM) | MIC ([5]; Acinetobacter calcoaceticus Stfd-79-17, Mueller-Hinton agar): 512 µg/mL (≈ 2100 µM) | MIC (Candida albicans; Candida albicans LL #32, Mueller-Hinton agar): 64 µg/mL (≈ 262 µM) | MIC (Candida albicans; Candida albicans LL #54, Mueller-Hinton agar): 128 µg/mL (≈ 524 µM) | MIC (Serratia sp.): 64 µg/mL (≈ 262 µM) | MIC (Staphylococcus aureus; ATCC25923, Staphylococcus aureus ATCC 25923): 16 µg/mL (≈ 65.5 µM) | Minimal Inhibitory Concentration (Staphylococcus aureus; Staphylococcus aureus FU-79-2): 16 µg/mL | MIC (Staphylococcus aureus; Staphylococcus aureus SSC-79-18): 16 µg/mL (≈ 65.5 µM) | MIC (Klebsiella pneumoniae; Klebsiella pneumoniae AD, Mueller-Hinton agar): 4 µg/mL (≈ 16.4 µM) | MIC (Klebsiella pneumoniae; Klebsiella pneumoniae SSC-78-1, Mueller-Hinton agar): 128 µg/mL (≈ 524 µM) | MIC (Klebsiella pneumoniae; Klebsiella pneumoniae Stfd-79-6, Mueller-Hinton agar): 128 µg/mL (≈ 524 µM) | MIC (Serratia marcescens): 32 µg/mL (≈ 131 µM) | MIC (Proteus rettgeri): 16 µg/mL (≈ 65.5 µM) | MIC (Enterobacter cloacae): 128 µg/mL (≈ 524 µM) | MIC (Escherichia coli; 18 h, Escherichia coli #31, Mueller-Hinton agar): 4 µg/mL (≈ 16.4 µM) | MIC (Escherichia coli; 18 h, Escherichia coli Stfd-79-20, Mueller-Hinton agar): 8 µg/mL (≈ 32.8 µM) | MIC (Escherichia coli; ATCC25922, 18 h, Escherichia coli ATCC 25922, Mueller-Hinton agar): 8 µg/mL (≈ 32.8 µM) | MIC (Proteus morganii): 64 µg/mL (≈ 262 µM) | MIC (Micrococcus luteus): 4 µg/mL (≈ 16.4 µM) | MIC (Enterococcus sp.; Enterococcus sp. OSU-75-1, read-out: Minimal Inhibitory Concentration): 64 µg/mL (≈ 262 µM) | Minimal Inhibitory Concentration (Enterococcus sp.; Enterococcus sp. SM-77-15): 64 µg/mL | MIC (Salmonella sp.): 4 µg/mL (≈ 16.4 µM) | Minimal Inhibitory Concentration (Providencia stuarti; Providencia stuarti K-81-29): 64 µg/mL | MIC (Providencia stuarti; Providencia stuarti SSC-80-78, read-out: Minimal Inhibitory Concentration): 64 µg/mL (≈ 262 µM) | MIC (Enterobacter aerogenes): 128 µg/mL (≈ 524 µM) | MIC (Pasteurella multocida): 64 µg/mL (≈ 262 µM) | MIC (Bacillus subtilis): 16 µg/mL (≈ 65.5 µM)
